Measured values: US20250304623A1, “PEPTIDES FOR INTRACELLULAR DELIVERY” (UNIVERSIDADE DE SANTIAGO DE COMPOSTELA, priority 2022, published 2025)
Starred links: 1 amine or outer side, 2 acyl side, 3 side chain; linkers in the order of their positions; H or OH if unused. Residues, ends and D or L forms follow the SMILES beside them. Groups on a side chain read outwards from the residue. *: point of attachment. Glutaryl = O=C(CCCC(=O)[*:2])[*:1]; NHNH2 = NN*

How the values were obtained:
Type in all cases: cell-based
[1] = test system: ARPE19 cells expressing EGFP; assay: EGFP-targeting siRNA delivery (GFP silencing vs siMOCK), ARPE19
Experimental: To generate an EGFP expressing HeLa cell line, HeLa cells were transfected with EGFP pDNA (pEGFP-C1, Clontech) and stable transfectants were selected with 400 μg/mL of G-418 (Millipore). Green clones were selected by epifluorescence microscopy and tested for EGFP expression stability through several passages. […] All other EGFP-expressing cell lines were obtained in a similar way from parent non-EGFP-expressing cell lines.
Cells expressing EGFP were seeded in a 96 well plate the day before the experiment at a concentration of 50,000 cell/mL (100 μL/w) in DMEM+10% FBS+1% Gln-Abt. For robotic library screening, the delivery of an EGFP-targeting siRNA (EGFP: enhanced green fluorescent protein, Ambion® Silencer® GFP Positive Control siRNA (siGFP) (AM4626)) in six different cell lines expressing EGFP was performed. […] The mixture was shaken for 30 min at room temperature (rt) before the addition to the cells. The cell medium was aspirated, and cells were washed twice with PBS. Finally, 50 μL of the solution of siRNA/amphiphile complexes were added to the cells and incubated for 4 h. After transfection, the medium was replaced by 100 μL of fresh DMEM supplemented with 10% FBS. The fluorescence knockdown was quantified after 72 h in a plate reader, by comparison with cells transfected with a non-targeting siRNA control (siMOCK, Silencer™ Negative Control No. 1 siRNA (siMOCK) (AM4611)). EGFP knockdown was compared with Lipofectamine® RNAiMAX silencing efficiency (30-60% depending on cell line, defined with a numeric value in the below tables). All experiments were done in triplicate.
(§1) Tables 1-7: RLuc (pDNA) or EGFP (mRNA) expression levels were normalized to Lipofectamine reagents (value=1) and expressed as fold-times signal increase. In the case of siRNA, the siRNA treated cells fluorescence was compared with siMOCK control fluorescence, while Cas9-RNP mediated knockout was measured against the fluorescence of untreated cells. In both siRNA and Cas9-RNP, values are expressed as % fluorescence reduction. Amphiphile concentration was 5 μM in all cases. All experiments were performed in triplicate.
Tables 20-25 show the mean (triplicates) percentage of GFP-silencing, accounted by fluorescence intensity decrease relative to a non-targeting siRNA (siMOCK) control, measured after the transfection of siRNA by different amphiphiles at different concentrations in a variety of cell lines. Background values, accounted by untreated control cells, were subtracted for processing.

[2] = test system: ARPE19 cells; assay: RLuc pDNA delivery, robotic library screening, ARPE19
[3] = test system: Hek293 cells; assay: EGFP mRNA delivery, robotic library screening, Hek293
Experimental: Cells were seeded in a 96 well plate the day before the experiment at a concentration of 50,000 cell/mL (100 μL/w) in DMEM+10% FBS+1% Gln-Abt. For robotic library screening, the delivery of EGFP-mRNA (from TriLink, fully substituted with 5-methoxyuridine, capped and polyadenylated; TriLink, CleanCap® EGFP mRNA (5moU), ref. L-7201) in six different cell lines was performed. Amphiphilic molecule stock solutions were prepared in DMSO as described above and diluted in DMEM to afford a range of concentrations. The solutions of EGFP-mRNA/amphiphilic molecule complexes were freshly prepared prior to the transfection experiments. 35 μL of the corresponding amphiphile were added to 10 μL of a solution of EGFP-mRNA at 10 ng/μL in DMEM. The mixture was shaken for 30 min at room temperature before the addition to the cells. The cell medium was aspirated, and cells were washed with PBS twice. Cells were covered with 39 μL of DMEM and 11 μL of the complex's solution were added to the cells and incubated for 4 h (final concentration of peptide=2.5, 5 and 10 μM; final concentration of EGFP-mRNA=25 ng/well). After the incubation, the medium was replaced by 100 μL of fresh DMEM supplemented with 10% FBS. The total EGFP fluorescence was quantified after 72 h in a well plate reader. Amphiphile transfection efficiency was compared and normalized to Lipofectamine® MessengerMax efficiency (value of 1 in Tables 1-5 and 7; double underlined numbers). All experiments were done in triplicate.
as §1
Tables 14-19 show the mean (triplicates) fluorescence intensity measured after the transfection of EGFP mRNA by different amphiphiles at different concentrations in a variety of cell lines. Background fluorescence values, accounted by untreated control cells, were subtracted for processing.

With “Ac-RK*LRRK*LRK*-NH2 (Ac-RK(NHNH2)LRRK(NHNH2)LRK(NHNH2)-NH2; not fully specified; printed as Ac-RK*LRRK*LRK*-NH2; also: K*2,K*6,K*9: native or modified lysine (ε-amide to a linker)) [Peptide 9.3]” the “percentage of GFP-silencing relative to siMOCK” value ([1]; Dodecanal, 5 μM) was 57%, the “percentage of GFP-silencing relative to siMOCK” value ([1]; Dodecanal, 10 μM) was 57% and the “percentage of GFP-silencing relative to siMOCK” value ([1]; Dodecanal, 15 μM) was 34%. The “percentage of GFP-silencing relative to siMOCK” value ([1]; Myristoleyl, 5 μM) was 47%, the “percentage of GFP-silencing relative to siMOCK” value ([1]; Oleyl, 5 μM) was 20% and the “percentage of GFP-silencing relative to siMOCK” value ([1]; Oleyl, 10 μM) was 55%. For the same molecule, the “percentage of GFP-silencing relative to siMOCK” value ([1]; Oleyl, 15 μM) was 51%, the “percentage of GFP-silencing relative to siMOCK” value ([1]; Palmitoleyl, 5 μM) was 51% and the “percentage of GFP-silencing relative to siMOCK” value ([1]; Palmitoleyl, 10 μM) was 30%. For the same molecule, the “percentage of GFP-silencing relative to siMOCK” value ([1]; Palmitoleyl, 15 μM) was 11%, the “percentage of GFP-silencing relative to siMOCK” value ([1]; Petroselinyl, 5 μM) was 18% and the “percentage of GFP-silencing relative to siMOCK” value ([1]; Petroselinyl, 10 μM) was 49%. The “percentage of GFP-silencing relative to siMOCK” value ([1]; Petroselinyl, 15 μM) was 52%, the “mean luminescent intensity (RLuc pDNA)” value ([2]; Myristoleyl, 5 μM) was 1400 RLU and the “mean luminescent intensity (RLuc pDNA)” value ([2]; Myristoleyl, 10 μM) was 6498 RLU. For the same molecule, the “mean luminescent intensity (RLuc pDNA)” value ([2]; Myristoleyl, 15 μM) was 1695 RLU, the “mean luminescent intensity (RLuc pDNA)” value ([2]; Palmitoleyl, 15 μM) was 7259 RLU and the “mean luminescent intensity (RLuc pDNA)” value ([2]; Petroselinyl, 5 μM) was 1052 RLU. For the same molecule, the “mean luminescent intensity (RLuc pDNA)” value ([2]; Petroselinyl, 10 μM) was 39447 RLU, the “mean luminescent intensity (RLuc pDNA)” value ([2]; Petroselinyl, 15 μM) was 55918 RLU and the “mean fluorescence intensity (EGFP mRNA)” value ([3]; Oleyl, 2.5 μM) was 1416. The “mean fluorescence intensity (EGFP mRNA)” value ([3]; Oleyl, 5 μM) was 2885, the “mean fluorescence intensity (EGFP mRNA)” value ([3]; Oleyl, 10 μM) was 466 and the “mean fluorescence intensity (EGFP mRNA)” value ([3]; Palmitoleyl, 5 μM) was 1665. The “mean fluorescence intensity (EGFP mRNA)” value ([3]; Palmitoleyl, 10 μM) was 1394, the “mean fluorescence intensity (EGFP mRNA)” value ([3]; Petroselinyl, 2.5 μM) was 1364 and the “mean fluorescence intensity (EGFP mRNA)” value ([3]; Petroselinyl, 5 μM) was 4636. For the same molecule, the “mean fluorescence intensity (EGFP mRNA)” value ([3]; Petroselinyl, 10 μM) was 643.

In the case of `CC(=O)N[C@@H](CCCNC(=N)N)C(=O)N[C@@H](CCCCNC(=O)CCCC(=O)NN)C(=O)N[C@@H](Cc1c[nH]cn1)C(=O)N[C@@H](CCCNC(=N)N)C(=O)N[C@@H](CCCCNC(=O)CCCC(=O)NN)C(=O)N[C@@H](CCCCNC(=O)CCCC(=O)NN)C(=O)N[C@@H](Cc1c[nH]cn1)C(N)=O` [7.3(L-H), Ac-RK*HRK*K*H-NH2] (Ac-RK([Glutaryl-NHNH2])HRK([Glutaryl-NHNH2])K([Glutaryl-NHNH2])H-NH2), the “percentage of GFP-silencing relative to siMOCK” value ([1]; Dodecanal, 5 μM) is reported as 10%, the “percentage of GFP-silencing relative to siMOCK” value ([1]; Myristoleyl, 5 μM) is reported as 45% and the “percentage of GFP-silencing relative to siMOCK” value ([1]; Myristoleyl, 10 μM) is reported as 45%. For the same molecule, the “percentage of GFP-silencing relative to siMOCK” value ([1]; Oleyl, 5 μM) was 15%, the “percentage of GFP-silencing relative to siMOCK” value ([1]; Oleyl, 10 μM) was 47% and the “percentage of GFP-silencing relative to siMOCK” value ([1]; Oleyl, 15 μM) was 46%. The “percentage of GFP-silencing relative to siMOCK” value ([1]; Palmitoleyl, 5 μM) was 49%, the “percentage of GFP-silencing relative to siMOCK” value ([1]; Palmitoleyl, 10 μM) was 65% and the “percentage of GFP-silencing relative to siMOCK” value ([1]; Palmitoleyl, 15 μM) was 40%. For the same molecule, the “percentage of GFP-silencing relative to siMOCK” value ([1]; Petroselinyl, 5 μM) was 5%, the “mean luminescent intensity (RLuc pDNA)” value ([2]; Myristoleyl, 5 μM) was 34050 RLU and the “mean luminescent intensity (RLuc pDNA)” value ([2]; Myristoleyl, 10 μM) was 40509 RLU. For the same molecule, the “mean luminescent intensity (RLuc pDNA)” value ([2]; Myristoleyl, 15 μM) was 13457 RLU, the “mean luminescent intensity (RLuc pDNA)” value ([2]; Palmitoleyl, 5 μM) was 111815 RLU and the “mean luminescent intensity (RLuc pDNA)” value ([2]; Palmitoleyl, 10 μM) was 92487 RLU. The “mean luminescent intensity (RLuc pDNA)” value ([2]; Palmitoleyl, 15 μM) was 55716 RLU, the “mean luminescent intensity (RLuc pDNA)” value ([2]; Petroselinyl, 5 μM) was 79286 RLU and the “mean luminescent intensity (RLuc pDNA)” value ([2]; Petroselinyl, 10 μM) was 77882 RLU. The “mean luminescent intensity (RLuc pDNA)” value ([2]; Petroselinyl, 15 μM) was 15465 RLU, the “pDNA delivery, times better than Lipofectamine 2000” value ([2]; palmitoleyl aldehyde) was 10 times and the “pDNA delivery, times better than Lipofectamine 2000” value ([2]; petroselinyl aldehyde) was 7 times. The “mean fluorescence intensity (EGFP mRNA)” value ([3]; Dodecanal, 2.5 μM) was 1201, the “mean fluorescence intensity (EGFP mRNA)” value ([3]; Dodecanal, 5 μM) was 588 and the “mean fluorescence intensity (EGFP mRNA)” value ([3]; Dodecanal, 10 μM) was 3588. The “mean fluorescence intensity (EGFP mRNA)” value ([3]; Myristoleyl, 2.5 μM) was 21438, the “mean fluorescence intensity (EGFP mRNA)” value ([3]; Myristoleyl, 5 μM) was 11945 and the “mean fluorescence intensity (EGFP mRNA)” value ([3]; Myristoleyl, 10 μM) was 1626. The “mean fluorescence intensity (EGFP mRNA)” value ([3]; Oleyl, 2.5 μM) was 9690, the “mean fluorescence intensity (EGFP mRNA)” value ([3]; Oleyl, 5 μM) was 17787 and the “mean fluorescence intensity (EGFP mRNA)” value ([3]; Oleyl, 10 μM) was 1626. For the same molecule, the “mean fluorescence intensity (EGFP mRNA)” value ([3]; Palmitoleyl, 2.5 μM) was 13282, the “mean fluorescence intensity (EGFP mRNA)” value ([3]; Palmitoleyl, 5 μM) was 12872 and the “mean fluorescence intensity (EGFP mRNA)” value ([3]; Palmitoleyl, 10 μM) was 4716. For the same molecule, the “mean fluorescence intensity (EGFP mRNA)” value ([3]; Petroselinyl, 2.5 μM) was 29561, the “mean fluorescence intensity (EGFP mRNA)” value ([3]; Petroselinyl, 5 μM) was 12351 and the “mean fluorescence intensity (EGFP mRNA)” value ([3]; Petroselinyl, 10 μM) was 6511.
